For orientation: LD50 means the dose at which mortality reaches 50%. Lower therefore signals greater toxicity. Usually ED50 stands for the dose that gives a 50% effect, or the effect in half of the subjects.

Like-named read-outs stand apart in the source and are kept apart here. A value given as a limit tells only on which side of the number the result lay.

These results are taken from US4126686A, “Analgesic 3-(3-methyl-3-butenyl)-1,2,3,4,5,6-hexahydro-6,11-dimethyl-8-hydroxy-2,6 -methano-3-benzazocine” (priority 1976, dated 1978).

The nature of data set [1]: Acute toxicity (LD50) in mice. Set-up: species or system mouse (male, dd strain). The settings on record: in vivo, mouse, observed one week. The method, then:
(§1) The LD50 is calculated according to the method of Litchfield and Wilcoxon [J. of Pharmacol. and Exper. Therap., 96, 99 (1949)]. Male mice of the dd strain weighing 19-21 g and male rats of the Wistar strain weighing 80-100 g are used. One group consists of 10 mice or 10 rats. The compound of formula (I) and pentazocine are administered subcutaneously or orally to the test animals which are observed for one week.

Data set [2] in a line: Acute toxicity (LD50) in rats. The conditions noted are these: in vivo, rat, observed one week. Set-up: species or system rat (male, Wistar strain). The method, then: as §1
For data set [3], the system named is male mice of the dd strain. As to the kind of experiment: Analgesic activity by acetic acid writhing method. The settings on record: mouse. It counts as in vivo, mouse (male. How it is done: (I) Analgesic activity by acetic acid writhing method:
The experiment is carried out according to the method of Koster et al [Fed. Proc., 18, 412 (1959)].
Male mice of the dd strain weighing 19-21 g are used in groups, each consisting of 10 mice. The test compounds, i.e. the compound of formula (I), pentazocine and morphine are administered subcutaneously or orally to the test mice. Immediately after this, 0.2 ml of a 0.7% (v/v) aqueous solution of acetic acid is administered intraperitoneally to the test mice except those which has been administered orally with morphine, to which 0.2 ml of a 0.7% (v/v) aqueous solution of acetic acid is administered intraperitoneally at 15 minutes after a morphine administration. […] At 10 minutes after the administration of acetic acid, the number of writhes is counted for 10 minutes. […] ED50 is calculated according to the method of Litchfield and Wilcoxon [J. Pharmacol. & Exper. Therap., 96, 99 (1949)].
In general terms: An intraperitoneal irritant provokes the stretching counted in writhing tests.

Data set [4] concerns male mice of the dd strain. Put plainly: animal or person. The conditions noted are these: tail flick, mouse, subcutaneous administration. Type of data set: in vivo, mouse (male. The method, then:
(II) Analgesic activity by Tail Flick method:
The experiment is carried out according to the method of Tail Flick (D'Amour-Smith method) [J. Pharmacol., 72, 74 (1941)].
A light beam of an infrared lamp (100 V; 250W) is passed through a hole having a diameter of a half inch and is irradiated onto the end of the tail of each mouse (male dd strain; weight: 19-21 g) to effect a heat stimulation. […] The compound of formula (I), pentazocine or morphine is administered subcutaneously to the mice. At 15, 30, 60, 90 and 120 minutes after the administration, the heat stimulation is repeatedly carried out to the mice in a similar manner to that described above and after each heat stimulation the time until the flick reaction occurs is measured. […] ED50 is calculated according to the above-mentioned method of Litchfield and Wilcoxon.

The subject of data set [5] is male mice of the dd strain. Put plainly: Analgesic activity by tail pinch method. It counts as in vivo, mouse (male. The conditions noted are these: mouse. How it is done: (III) Analgesic activity by tail pinch method:
The experiment is carried out according to the method of H. Takagi et al [Jap. J. Pharmacol., 16, 287 (1966)].
In this experiment, male mice of the dd strain weighing 19-21 g are used in groups, each consisting of 10 mice. Before the experiment, animals which are sensitive to pressure stimulation are selected in the following manner.
The compound of formula (I), pentazocine or morphine is administered subcutaneously or orally to the selected mice. At 15, 30, 60, 90, and 120 minutes after the administration, an artery clip is repeatedly applied to the root of the tail of each mouse. […] ED50 is calculated according to the method of Litchfield and Wilcoxon [J. Pharmacol. & Exper. Therap., 96, 99 (1949)].

The subject of data set [6] is male rats of the Wistar strain. As to the kind of experiment: Analgesic activity by bradykinin method. Type of data set: in vivo, rat (male. The settings on record: rat. The method, then:
(IV) Analgesic activity by bradykinin method:
The experiment is carried out according to the method of Abe et al [Nihon Yakuri Gakkai Si (J. Japanese Pharmacological Academy) 67, 9 (1971)].
(§2) In this experiment, male rats of the Wistar strain weighing 210-260 g were used in groups, each consisting of 10 rats. A cannula is inserted into the right carotid artery of the rat anesthetized with ether. After recovering completely from ether anesthesis, 0.2 ml of a physiological salt solution containing bradykinin in an amount of about 2 μg/ml is injected retrogradely to the rat through the cannula. […] The compound of formula (I), pentazocine or morphine is administered subcutaneously or orally to the rat. At 15, 30, 60, 90 and 120 minutes after the administration of the test compound, bradykinin is injected repeatedly to the rat in a similar manner to that described above. […] ED50 is calculated according to the method of Litchfield and Wilcoxon [J. Pharmacol. & Exper. Therap., 96, 99 (1949 )].

Data set [7] in a line: Margin of safety (R = LD50/ED50), acetic acid writhing, mouse. The settings on record: in vivo. The method, then:
as §1
Male mice of the dd strain weighing 19-21 g are used in groups, each consisting of 10 mice. The test compounds, i.e. the compound of formula (I), pentazocine and morphine are administered subcutaneously or orally to the test mice. Immediately after this, 0.2 ml of a 0.7% (v/v) aqueous solution of acetic acid is administered intraperitoneally to the test mice except those which has been administered orally with morphine, to which 0.2 ml of a 0.7% (v/v) aqueous solution of acetic acid is administered intraperitoneally at 15 minutes after a morphine administration. The mice of a control group are not administered with the test compounds but with only the acetic acid solution in a similar manner to that described above. At 10 minutes after the administration of acetic acid, the number of writhes is counted for 10 minutes. When the writhing numbers of the test group decrease to below 50% of the corresponding numbers of the control group, the test compound is determined to be analgesically active. ED50 is calculated according to the method of Litchfield and Wilcoxon [J. Pharmacol. & Exper. Therap., 96, 99 (1949)].
The usefulness of the compound as medicament is expressed by margin of safety (R) of the compound which is calculated by (LD50 /ED50). Compounds having higher R are deemed to be more useful as medicament than those having lower R. The margins of safety of the compound of formula (I) and pentazocine are shown in Table 6.

A short description of data set [8]: Margin of safety (R = LD50/ED50), bradykinin, rat. The conditions noted are these: in vivo, sc, S.C. in rat. How it is done: as §1, §2
The usefulness of the compound as medicament is expressed by margin of safety (R) of the compound which is calculated by (LD50 /ED50). […]

Data set [9] in a line: Analgesic activity compared with pentazocine (general statement). It counts as in vivo. The settings on record: in words.
[10] abbreviates: sc, subcutaneous administration.
Where [11] appears, read: oral administration, read-out: ED50.
Where [12] appears, read: sc, subcutaneous administration, read-out: ED50.

For the compound `CC(C)=CCN1CCC2(C)c3cc(O)ccc3CC1C2C` (stereo not drawn) [Pentazocine, 3-(3-methyl-2-butenyl)-1,2,3,4,5,6-hexahydro-6,11-dimethyl-8-hydroxy-2,6-methano-3-benzazocine], the LD50 at 168 h in data set [1] (setting [10]) is 140 mg/kg; in [1] (oral administration), 305 mg/kg; in [2] (setting [10]), 165 mg/kg; in data set [2] (oral administration), > 400 mg/kg. Further, the ED50 in data set [3] (setting [11]) is 82 mg/kg; in data set [3] (setting [12]) it was 3.45 mg/kg; in data set [4] (sc, read-out: ED50), > 40 mg/kg; in data set [5] (setting [11]), > 40 mg/kg; in data set [5] (setting [12]), > 40 mg/kg; in [6] (setting [11]), > 100 mg/kg. For the same compound, the ED50 in data set [6] (setting [12]) stood at 10.5 mg/kg. In addition, the selectivity ratio in [7] (po, P.O. in mouse) stood at 3.7; in data set [7] (sc, S.C. in mouse), 40.6; in data set [8], 15.7.
With `C=C(C)CCN1CCC2(C)c3cc(O)ccc3CC1C2C` (stereo not drawn) [Compound of formula (I), 3-(3-methyl-3-butenyl)-1,2,3,4,5,6-hexahydro-6,11-dimethyl-8-hydroxy-2,6-methano-3-benzazocine], the median lethal dose (LD50) at 168 h is 80 mg/kg in data set [1] (setting [10]), 205 mg/kg in data set [1] (oral administration), 61 mg/kg in data set [2] (setting [10]) and > 300 mg/kg in data set [2] (oral administration). Moreover, the 50% effective dose (ED50) in [3] (setting [11]) is 14.3 mg/kg; in data set [3] (setting [12]), 0.09 mg/kg; in data set [4] (sc, read-out: ED50), 0.76 mg/kg; in data set [5] (setting [11]), 29.3 mg/kg; in data set [5] (setting [12]), 0.51 mg/kg; in data set [6] (setting [11]), 35 mg/kg. Besides, the ED50 in data set [6] (setting [12]) was 0.38 mg/kg. Besides, the selectivity ratio is 14.3 in data set [7] (po, P.O. in mouse); 889 in data set [7] (sc, S.C. in mouse); 161 in data set [8]. The analgesic activity entry in data set [9] was “unexpectedly a better analgesic activity than the known pentazocine”.
With `CN1CC[C@]23c4c5ccc(O)c4O[C@H]2[C@@H](O)C=C[C@H]3[C@H]1C5` [Morphine, morphine], the ED50 in data set [3] (oral administration) worked out at 5.1 mg/kg; in [3] (subcutaneous administration) it was 0.56 mg/kg; in data set [4], 5.2 mg/kg; in [5] (oral administration), 35.5 mg/kg; in [5] (subcutaneous administration), 3.5 mg/kg; in data set [6] (oral administration), 85 mg/kg. The compound further came in with a median effective dose (ED50) in [6] (subcutaneous administration) of 4.8 mg/kg.
